Reference: patent US9745355B2, “Binding-site modified lectins and uses thereof” (SmartCells, Inc., priority 2009, dated 2017)

Tested on: formaldehyde-stabilized rabbit erythrocytes
Test: MAC assay (minimum agglutinating concentration)
Assay type: cell-based
Settings: 2% v/v suspension of formaldehyde-stabilized rabbit erythrocytes
Source text: Enzymol. 83:368-373, 1982. Formaldehyde-treated rabbit erythrocytes, prepared by published procedures (Nowak et al., Biochim. Biophys. […] The MAC was defined as the lectin protein concentration (exclusive of attached chemical compounds) in the highest dilution showing visible agglutination. […] An aliquot of the formaldehyde-treated Rabbit erythrocytes was then pipetted into each well. At low lectin concentrations, there was insufficient lectin to form a network of crosslinked cells and the cells dropped to the bottom of the V-well forming what looks like a dark pin-point circle at the bottom of the plate when viewed from above. However, once the lectin concentration reached the minimum agglutination concentration (MAC), the lectin molecules began crosslinking the saccharide receptors on the erythrocyte surfaces, resulting in a network that cannot settle to the bottom of the V-well forming what looks like a large, opaque, diffuse circle when viewed from above. The lowest concentration that produces the large diffuse circle is the MAC value for a particular formulation.

concanavalin A [Umodified]
MAC: <1 µg/mL
